Laboratory results: US20120264735A1 (priority 2009, published 2012)

Biological target: T1, c-Met kinase (recombinant c-Met) (Homo sapiens, UniProt P08581)
T1 construct: 0.27 nM recombinant c-Met
Test: In vitro kinase assay I (homogeneous time-resolved fluorescence tyrosine kinase assay)
Type: biochemical
Method in brief: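 Biotinylated peptide (0.5 μM) phosphorylated by 0.2 nM recombinant c-Met with 50 μM MgATP, 60 min at room temperature, pH 7.4, 5% DMSO. EDTA stop; HTRF read with Eu-anti-phosphotyrosine antibody and streptavidin-APC. IC50 from 4-parameter logistic fit.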

T1 sequence (P08581 25-1390): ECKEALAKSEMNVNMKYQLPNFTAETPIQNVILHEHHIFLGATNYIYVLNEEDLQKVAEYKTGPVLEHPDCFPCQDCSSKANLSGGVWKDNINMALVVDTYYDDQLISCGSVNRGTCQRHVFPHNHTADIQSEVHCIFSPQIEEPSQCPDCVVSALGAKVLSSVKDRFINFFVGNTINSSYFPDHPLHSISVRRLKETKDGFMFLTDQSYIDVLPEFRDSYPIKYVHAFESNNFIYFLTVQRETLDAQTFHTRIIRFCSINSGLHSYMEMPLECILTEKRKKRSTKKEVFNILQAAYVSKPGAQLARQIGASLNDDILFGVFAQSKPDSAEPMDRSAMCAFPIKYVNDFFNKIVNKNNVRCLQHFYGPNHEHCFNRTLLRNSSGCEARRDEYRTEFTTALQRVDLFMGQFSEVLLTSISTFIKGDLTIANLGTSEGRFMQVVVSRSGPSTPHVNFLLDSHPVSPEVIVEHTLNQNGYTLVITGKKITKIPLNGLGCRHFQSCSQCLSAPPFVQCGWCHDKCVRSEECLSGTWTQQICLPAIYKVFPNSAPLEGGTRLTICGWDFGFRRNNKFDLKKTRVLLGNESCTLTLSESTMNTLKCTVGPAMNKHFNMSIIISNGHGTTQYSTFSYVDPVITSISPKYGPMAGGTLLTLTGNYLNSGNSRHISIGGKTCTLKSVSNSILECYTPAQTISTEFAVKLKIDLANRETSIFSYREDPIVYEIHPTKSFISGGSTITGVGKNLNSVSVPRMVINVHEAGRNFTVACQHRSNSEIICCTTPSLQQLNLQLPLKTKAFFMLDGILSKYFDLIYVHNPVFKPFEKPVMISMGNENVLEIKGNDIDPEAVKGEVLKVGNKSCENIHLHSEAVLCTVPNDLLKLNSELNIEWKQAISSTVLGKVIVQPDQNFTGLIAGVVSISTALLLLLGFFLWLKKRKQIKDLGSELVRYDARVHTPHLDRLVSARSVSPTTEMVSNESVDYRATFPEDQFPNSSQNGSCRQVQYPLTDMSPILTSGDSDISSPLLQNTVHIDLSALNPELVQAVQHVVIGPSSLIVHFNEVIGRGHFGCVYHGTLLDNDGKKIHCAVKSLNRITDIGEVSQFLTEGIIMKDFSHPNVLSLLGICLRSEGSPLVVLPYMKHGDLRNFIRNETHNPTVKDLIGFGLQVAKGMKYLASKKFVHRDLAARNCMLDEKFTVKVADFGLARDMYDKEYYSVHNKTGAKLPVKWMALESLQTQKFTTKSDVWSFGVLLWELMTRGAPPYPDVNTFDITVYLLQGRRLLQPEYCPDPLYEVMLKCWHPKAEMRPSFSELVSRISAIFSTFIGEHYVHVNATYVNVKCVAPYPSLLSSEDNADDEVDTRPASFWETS

IC50 [nM]	SMILES
< 100	COc1cnc(-c2cccc(C(C)c3nn(-c4cnn(C)c4)ccc3=O)c2)nc1 (single isomer, unassigned) [Example 204, 3-{(1R or S)-1-[3-(5-methoxypyrimidin-2-yl)phenyl]ethyl}-1-(1-methyl-1H-pyrazol-4-yl)pyridazin-4(1H)-one]
< 100	COCCOc1cnc(-c2cccc(Cc3nn(-c4cnn(C)c4)ccc3=O)c2)nc1 [Example 4, 3-{3-[5-(2-Methoxyethoxy)pyrimidin-2-yl]benzyl}-1-(1-methyl-1H-pyrazol-4-yl)pyridazin-4(1H)-one]
1000 to 3000	CC(=O)Nc1cccc(Cc2nn(-c3ccccc3)ccc2=O)c1 [Example 631, N-{3-[(4-Oxo-1-phenyl-1,4-dihydropyridazin-3-yl)methyl]phenyl}acetamide]
< 100	CC(c1cccc(-c2ncc(O[C@H]3CCNC[C@H]3F)cn2)c1)c1nn(-c2cnn(C)c2)ccc1=O (stereo partly drawn) [Example 344]
< 100	CCCCn1cnc(-c2cccc(Cc3nn(-c4cnn(C)c4)ccc3=O)c2)n1 [Example 76, 3-[3-(1-butyl-1H-1,2,4-triazol-3-yl)benzyl]-1-(1-methyl-1H-pyrazol-4-yl)pyridazin-4(1H)-one]
< 100	COc1cnc(-c2cccc(Cc3nn(-c4cncc(C#N)c4)ccc3=O)c2)nc1 [Example 733, 5-{3-[3-(5-Methoxypyrimidin-2-yl)benzyl]-4-oxopyridazin-1(4h)-yl}pyridine-3-carbonitrile]
100 to 1000	O=c1ccn(-c2ccc(Cl)cc2)nc1Cc1ccc2ncccc2c1 [Example 43, 1-(4-chlorophenyl)-3-(quinolin-6-ylmethyl)pyridazin-4(1H)-one]
< 100	COc1cnc(-c2cccc(Cc3nn(-c4cnn(C)c4)ccc3=O)c2)nc1 [Example 5, 3-[3-(5-Methoxypyrimidin-2-yl)benzyl]-1-(1-methyl-1H-pyrazol-4-yl)pyridazin-4(1H)-one]
< 100	O=c1ccn(-c2ccc(F)c(F)c2)nc1Cc1cccc(-c2ncc(OCC3CCOC3)cn2)c1 (single isomer, unassigned) [Example 351, 1-(3,4-difluorophenyl)-3-(3-{5-[(3R or S)-tetrahydrofuran-3-ylmethoxy]pyrimidin-2-yl}benzyl)pyridazin-4(1H)-one]
< 100	O=C1CN(CCOC(=O)Nc2cccc(Cc3nn(-c4ccc(F)c(F)c4)ccc3=O)c2)CCN1 [Example 529, 2-(3-oxopiperazin-1-yl)ethyl (3-{[1-(3,4-difluorophenyl)-4-oxo-1,4-dihydropyridazin-3-yl]methyl}phenyl)carbamate]
< 100	CCn1cc(-n2ccc(=O)c(C(C)c3cccc(-c4ncc(OCc5ccccc5)cn4)c3)n2)cn1 (single isomer, unassigned) [Example 229, 3-((1R or S)-1-{3-[5-(benzyloxy)pyrimidin-2-yl]phenyl}ethyl)-1-(1-ethyl-1H-pyrazol-4-yl)pyridazin-4(1H)-one]
< 100	CC(C)(O)COc1cnc(-c2cccc(Cc3nn(-c4cccc(C#N)c4)ccc3=O)c2)nc1 [Example 361, 3-[3-{3-[5-(2-hydroxy-2-methylpropoxy)pyrimidin-2-yl]benzyl}-4-oxopyridazin-1(4H)-yl]benzonitrile]
< 100	Cn1cc(-n2ccc(=O)c(Cc3cccc(NC(=O)OCC4CCOC4)c3)n2)cn1 (racemic) [Example 542, rac-tetrahydrofuran-3-ylmethyl (3-{[1-(1-methyl-1H-pyrazol-4-yl)-4-oxo-1,4-dihydropyridazin-3-yl]methyl}phenyl)carbamate]
100 to 1000	CCOC(=O)Nc1cccc(Cc2nn(-c3ccccc3)ccc2=O)c1 [Example 642, Ethyl {3-[(4-oxo-1-phenyl-1,4-dihydropyridazin-3-yl)methyl]phenyl}carbamate]
< 100	Cn1cc(-n2ccc(=O)c(Cc3cccc(NC(=O)OCC4(F)CCNCC4)c3)n2)cn1 [Example 620, (4-fluoropiperidin-4-yl)methyl (3-{[1-(1-methyl-1H-pyrazol-4-yl)-4-oxo-1,4-dihydropyridazin-3-yl]methyl}phenyl)carbamate]
< 100	CCCOC(=O)Nc1cccc(Cc2nn(-c3cnn(C4CCOC4)c3)ccc2=O)c1 (racemic) [Example 98, rac-propyl [3-({4-oxo-1-[1-(tetrahydrofuran-3-yl)-1H-pyrazol-4-yl]-1,4-dihydropyridazin-3-yl}methyl)phenyl]carbamate]
< 100	Cn1cc(-n2ccc(=O)c(Cc3cccc(-c4ncc(-c5ccnnc5)cn4)c3)n2)cn1 [Example 425, 1-(1-methyl-1H-pyrazol-4-yl)-3-[3-(5-pyridazin-4-ylpyrimidin-2-yl)benzyl]pyridazin-4(1H)-one]
< 100	N#Cc1cc(Cl)cc(-n2ccc(=O)c(Cc3cccc(NC(=O)OCC4CCOC4)c3)n2)c1 (racemic) [Example 141, rac-tetrahydrofuran-3-ylmethyl (3-{[1-(3-chloro-5-cyanophenyl)-4-oxo-1,4-dihydropyridazin-3-yl]methyl}phenyl)carbamate]

IC50 [nM]	SMILES
< 100	CCOc1cnc(-c2cccc(Cc3nn(-c4cnn(CC(C)(C)O)c4)ccc3=O)c2)nc1 [Example 666, 3-[3-(5-Ethoxypyrimidin-2-yl)benzyl]-1-[1-(2-hydroxy-2-methylpropyl)-1H-pyrazol-4-yl]pyridazin-4(1H)-one]
100 to 1000	CCOc1cnc2ccc(Cc3nn(-c4cnn(C)c4)ccc3=O)cc2c1 [Example 59, 3-[(3-ethoxyquinolin-6-yl)methyl]-1-(1-methyl-1H-pyrazol-4-yl)pyridazin-4(1H)-one]
< 100	CN1CCC(COc2cnc(-c3cccc(Cc4nn(-c5cc(F)cc(F)c5)ccc4=O)c3)nc2)CC1 [Example 173, 1-(3,5-difluorophenyl)-3-(3-{5-[(1-methylpiperidin-4-yl)methoxy]pyrimidin-2-yl}benzyl)pyridazin-4(1H)-one]
< 100	O=C(Nc1cccc(Cc2nn(-c3ccc(F)c(F)c3)ccc2=O)c1)OCC1CCOCC1 [Example 527, tetrahydro-2H-pyran-4-ylmethyl (3-{[1-(3,4-difluorophenyl)-4-oxo-1,4-dihydropyridazin-3-yl]methyl}phenyl)carbamate]
< 100	CCn1cc(-n2ccc(=O)c(Cc3cccc(-c4ncc(OCc5noc(C)n5)cn4)c3)n2)cn1 [Example 314, 1-(1-ethyl-1H-pyrazol-4-yl)-3-(3-{5-[(5-methyl-1,2,4-oxadiazol-3-yl)methoxy]pyrimidin-2-yl}benzyl)pyridazin-4(1H)-one]
100 to 1000	Cn1cc(-n2ccc(=O)c(Cc3cccc(NC(=O)OC4CCNCC4)c3)n2)cn1 [Example 618, piperidin-4-yl (3-{[1-(1-methyl-1H-pyrazol-4-yl)-4-oxo-1,4-dihydropyridazin-3-yl]methyl}phenyl)carbamate]
< 100	O=c1ccn(-c2cc(F)cc(F)c2)nc1Cc1cccc(-c2ncc(OC3COC3)cn2)c1 [Example 330]
< 100	CCOc1cnc(-c2cccc(Cc3nn(-c4cnn(C5CNC5)c4)ccc3=O)c2)nc1 [Example 663, 1-(1-Azetidin-3-yl-1H-pyrazol-4-yl)-3-[3-(5-ethoxypyrimidin-2-yl)benzyl]pyridazin-4(1H)-one]
< 100	COCCNc1cnc(-c2cccc(Cc3nn(-c4cnn(C)c4)ccc3=O)c2)nc1 [Example 453, 3-(3-{5-[(2-methoxyethyl)amino]pyrimidin-2-yl}benzyl)-1-(1-methyl-1H-pyrazol-4-yl)pyridazin-4(1H)-one]
< 100	CCNC(=O)c1cnc(-c2cccc(Cc3nn(-c4cnn(C)c4)ccc3=O)c2)nc1 [Example 484, N-ethyl-2-(3-{[1-(1-methyl-1H-pyrazol-4-yl)-4-oxo-1,4-dihydro-pyridazin-3-yl]methyl}phenyl)pyrimidine-5-carboxamide]
100 to 1000	CCOc1cnc(-c2cccc(C(O)c3nn(-c4cnn(C)c4)ccc3=O)c2)nc1 (racemic) [Example 654, rac-3-[[3-(5-Ethoxypyrimidin-2-yl)phenyl](hydroxy)methyl]-1-(1-methyl-1H-pyrazol-4-yl)pyridazin-4(1H)-one]
< 100	CC(c1cccc(-c2ncc(-c3cnn(C)c3)cn2)c1)c1nn(-c2ccc(F)c(F)c2)ccc1=O (single isomer, unassigned) [Example 239, 1-(3,4-difluorophenyl)-3-[(1R or S)-1-{3-[5-(1-methyl-1H-pyrazol-4-yl)pyrimidin-2-yl]phenyl}ethyl]pyridazin-4(1H)-one]
< 100	CC(C)COC(=O)Nc1cccc(Cc2nn(-c3ccc(Br)cc3)ccc2=O)c1 [Example 68, 2-methylpropyl (3-{[1-(4-bromophenyl)-4-oxo-1,4-dihydropyridazin-3-yl]methyl}phenyl)carbamate]
< 100	CCCOC(=O)Nc1cccc(Cc2nn(-c3cnn(C(C)C)c3)ccc2=O)c1 [Example 104, propyl [3-({1-[1-(1-methylethyl)-1H-pyrazol-4-yl]-4-oxo-1,4-dihydropyridazin-3-yl}methyl)phenyl]carbamate]
< 100	CCCn1cc(-n2ccc(=O)c(Cc3cccc(NC(=O)OCCN4CCOCC4)c3)n2)cn1 [Example 117, 2-morpholin-4-ylethyl (3-{[4-oxo-1-(1-propyl-1H-pyrazol-4-yl)-1,4-dihydropyridazin-3-yl]methyl}phenyl)carbamate]
< 100	C/C=C/c1cnc(-c2cccc(Cc3nn(-c4cnn(C)c4)ccc3=O)c2)nc1 [Example 400, 1-(1-methyl-1H-pyrazol-4-yl)-3-(3-{5-[(1E)-prop-1-en-1-yl]pyrimidin-2-yl}benzyl)pyridazin-4(1H)-one]
< 100	CCOc1cnc(-c2cccc(Cc3nn(-c4cccc(C#N)c4)ccc3=O)c2)nc1 [Example 72, 3-[3-[3-(5-ethoxypyrimidin-2-yl)benzyl]-4-oxopyridazin-1(4H)-yl]benzonitrile]
< 100	Cn1cc(-n2ccc(=O)c(Cc3cccc(-c4ncc(OCC5(CO)COC5)cn4)c3)n2)cn1 [Example 268, 3-[3-(5-{[3-(hydroxymethyl)oxetan-3-yl]methoxy}pyrimidin-2-yl)benzyl]-1-(1-methyl-1H-pyrazol-4-yl)pyridazin-4(1H)-one]
